Assay results from article PMC10045534, “Preparation and Evaluation of 6-Gingerol Derivatives as Novel Antioxidants and Antiplatelet Agents” (Antioxidants, 2023).
Like-named read-outs stand apart in the source and are kept apart here. Values belong to the compound of their own block, whether it stands above or below them.

Tests used:
xanthine oxidase (XO) = target: T1, xanthine oxidase (XO) (Bos taurus, UniProt P80457); assay: Xanthine oxidase inhibition, spectrophotometric; format: biochemical; settings: for inhibition at 100 µM: read-out: XO Inhibition (%); for XO Inhibition (%): % inhibition at 100 µM, mean ± SEM, n = 3
T1 construct: purchased Sigma (Merck KGaA)
T1 sequence (P80457 2-1332 limits assumed): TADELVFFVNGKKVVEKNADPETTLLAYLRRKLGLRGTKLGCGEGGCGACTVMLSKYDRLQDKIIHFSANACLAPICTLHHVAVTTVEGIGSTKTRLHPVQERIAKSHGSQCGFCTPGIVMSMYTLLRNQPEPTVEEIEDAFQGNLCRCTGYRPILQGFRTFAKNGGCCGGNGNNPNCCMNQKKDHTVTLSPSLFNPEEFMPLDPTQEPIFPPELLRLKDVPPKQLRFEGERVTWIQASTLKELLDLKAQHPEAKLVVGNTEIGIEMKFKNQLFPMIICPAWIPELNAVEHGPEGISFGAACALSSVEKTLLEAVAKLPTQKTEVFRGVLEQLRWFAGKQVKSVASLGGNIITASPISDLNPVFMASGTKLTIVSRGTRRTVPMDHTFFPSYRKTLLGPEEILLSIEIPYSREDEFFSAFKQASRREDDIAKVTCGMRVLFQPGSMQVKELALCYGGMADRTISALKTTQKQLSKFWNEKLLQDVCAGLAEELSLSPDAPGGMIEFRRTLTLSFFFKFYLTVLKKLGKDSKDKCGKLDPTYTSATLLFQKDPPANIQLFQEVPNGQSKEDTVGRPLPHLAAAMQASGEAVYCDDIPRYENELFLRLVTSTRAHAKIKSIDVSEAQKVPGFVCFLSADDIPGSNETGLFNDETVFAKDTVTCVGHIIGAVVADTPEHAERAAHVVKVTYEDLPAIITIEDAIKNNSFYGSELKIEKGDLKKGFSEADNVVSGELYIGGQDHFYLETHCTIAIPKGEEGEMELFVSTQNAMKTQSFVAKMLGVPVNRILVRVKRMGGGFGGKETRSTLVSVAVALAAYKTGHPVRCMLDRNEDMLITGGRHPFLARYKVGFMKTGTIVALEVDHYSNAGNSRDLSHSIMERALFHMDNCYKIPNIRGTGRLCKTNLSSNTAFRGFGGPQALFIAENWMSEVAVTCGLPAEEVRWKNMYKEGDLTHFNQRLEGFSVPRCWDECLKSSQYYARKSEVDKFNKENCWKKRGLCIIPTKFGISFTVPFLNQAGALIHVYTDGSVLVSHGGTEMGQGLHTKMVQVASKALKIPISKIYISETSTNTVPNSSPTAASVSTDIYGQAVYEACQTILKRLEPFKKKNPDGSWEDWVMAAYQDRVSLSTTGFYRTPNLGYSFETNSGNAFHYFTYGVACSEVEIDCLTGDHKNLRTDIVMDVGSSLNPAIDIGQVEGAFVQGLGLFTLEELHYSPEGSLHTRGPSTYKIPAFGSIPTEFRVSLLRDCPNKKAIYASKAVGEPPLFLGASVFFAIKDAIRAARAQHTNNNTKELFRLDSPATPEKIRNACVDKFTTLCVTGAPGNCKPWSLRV
Procedure: The xanthine oxidase (XO) inhibitory activity of the compounds was determined using continuous spectrophotometric rate based on a modified protocol of Sigma. […]. In a 96-well plate, the final reaction mixture consisted of 10 µL of sample (dissolved in DMSO, […] stock solution, 100 µM final), 100 µL of xanthine solution (0.15 mM, pH = 7.4), 140 µL of buffer (potassium phosphate, pH = 7.5) and 50 µL of XO (0.2 units/mL). When measuring the enzyme activity, control buffer was used in place of the sample. Allopurinol was applied as a control. The reaction was initiated by the automatic addition of 50 µL of XO solution. The absorbance of XO-induced uric acid production from xanthine was measured at 290 nm for 3 min in a 96-well plate on a BMG Labtech FluoStar Optima plate reader. The inhibitory percentage values were calculated by using Graph Pad Prism 8.0 (La Jolla, CA, USA).

[1] = Kinetic aqueous solubility in PBS pH 7.4; format: physicochemical; settings: PBS (pH 7.4), 37 °C, pH 7.4, aqueous buffer, kinetic from dmso stock, after 2 h at 37 °C in PBS, 500 μM target concentration, mean ± SEM, n = 3
Procedure: Preparative purifications over RP-HPLC were performed on a Kinetex XB C18 (5 μm, 250 × 21.2 mm) column on an Armen Spot Prep II integrated HPLC purification system (Gilson, Middleton, WI, USA) with dual-wavelength detection, with an adequately chosen combination of acetonitrile–water, and a flow rate of 15 mL/min. The purity of the compounds obtained was determined by RP-HPLC analyses on a system of two Jasco PU 2080 pumps, a Jasco AS-2055 Plus intelligent sampler connected to a JASCO LC-Net II/ADC equipped with a Jasco MD-2010 Plus PDA detector (Jasco International Co. Ltd., Hachioji, Tokyo, Japan) utilizing a Kinetex C-18 (5 μm, 250 × 4.6 mm) column (Phenomenex Inc., Torrance, CA, USA) and applying a gradient of 30%–100% aqueous AcN in 30 min followed by 100% ACN for 10 min with a flow rate of 1 mL/min. Analysis of samples from the PAMPA and kinetic solubility assays was performed the same way, by using 3-point calibrations and integrating each compound at its UV absorption maximum.
In a 96-well polypropylene plate (Greiner Bio-One, Kremsmünster, Austria), 15 μL stock solutions were added to 285 μL PBS (pH 7.4) to make starting donor solution with 500 μM as target concentration. For each sample, 3 replicates were measured. The samples were covered and shaken at 37 °C, 300 rpm for 2 h (Heidolph Titramax 1000, Heidolph Instruments GmbH & Co. KG, Schwabach, Germany). After that, each sample was transferred into a filter plate (MSSBLPC, Multiscreen Filter plate, Merck kGaA) and filtered (Vaccum Manifold, Merck kGaA, Darmstadt, Germany). The filtrates were transferred into HPLC vials, and acetonitrile (AcN) was added to aliquot to avoid precipitation. The final solvent ratio was AcN:PBS (70:30). Filtrate concentration was determined by HPLC-UV (see Section 2.1) using 3-points calibration.

washed human platelets = assay: Arachidonic acid-induced platelet aggregation (turbidimetric aggregometer); format: cell-based; settings: washed human platelets treated 3 min, then arachidonic acid (100 μM), mean ± SEM, n = 3, read-out: Antiplatelet IC50
Procedure: (§1) All bioactivity data processing, including the calculation of inhibition percentage, mean and corresponding standard error of the mean (SEM), and IC50 values, was performed by GraphPad Prism 8.0 (La Jolla, CA, USA). IC50 values were calculated from the sigmoidal dose–response curves obtained by the log(inhibitor) vs. response and variable slope (DPPH assay) or the log(inhibitor) vs. normalised response and variable slope nonlinear regression model. On the results obtained, no statistical evaluation was performed; instead, differences greater than two-fold were considered relevant. Plotting of the antiplatelet and COX-1 inhibitory IC50 values and the linear regression of the data was performed by Microsoft Excel.
Human platelet suspension (3 × 10^8/mL in Tyrode’s buffer) was prepared as previously described. The protocol for this study was approved by the institutional review board of Kaohsiung Medical University Hospital (Kaohsiung City, Taiwan). Platelets pre-treated with DMSO (vehicle control) or test compounds were stimulated with arachidonic acid (AA), and platelet aggregation was measured using turbidimetric aggregometer (Chrono-Log Co., Havertown, PA, USA) at 37 °C under stirring conditions (1200 rpm).

[2] = Oxygen radical absorbance capacity (ORAC); settings: 1 µM sample; mean ± SEM, n = 3
Procedure: AAPH ((2,20-Azobis(2-methyl-propionamidine) dihydrochloride) free radical and Trolox standard were purchased from Sigma-Aldrich Hungary. Fluorescein was purchased from Fluka Analytical, Tokyo, Japan. ORAC assay was carried out In a 96-well microplate based on the method from previous study. Briefly, 20 µL of the samples (1 µM final concentration, dissolved in phosphate buffer, pH = 7.4, containing 1% MeOH) were mixed with 60 µL of AAPH (12 mM final concentration, dissolved in phosphate buffer, pH = 7.4) and 120 µL of fluorescein solution (70 nM final concentration, dissolved in phosphate buffer), then the fluorescence was measured (excitation at λ = 485 nm, and emission at λ = 520 nm) through 3 h with 1.5-min cycle intervals with a BMG Labtech FluoStar Optima plate-reader. All experiments were carried out in triplicate, and Trolox was used as standard. The antioxidant capacity is expressed as Trolox Equivalent (TE), as calculated using GraphPad Prism 8.0 (La Jolla, CA, USA).

[3] = Peroxynitrite scavenging (pyrogallol red); settings: % inhibition at 500 µM; mean ± SEM, n = 3
Procedure: Peroxynitrite was synthesised by a continuous flow system using syringe pumps as published previously. Briefly, an acidic solution of hydrogen peroxide (0.6 M H2O2, 0.7 M HCl) was pumped to a junction alongside of sodium nitrite solution (0.6 M) at a flow rate of 1.5 mL/min. After passing 10 cm of tubing, it was mixed with a sodium hydroxide solution (1.5 M), also pumped at 1.5 mL/min. The resulting peroxynitrite solution was a bright yellow colour. The tubing around the reaction was submerged in ice. The concentration of the solution was determined by spectrophotometry and was adjusted to 30 mM with 0.1 M NaOH solution.
In a 96-well microplate 245 µL of pyrogallol red (100 µM final concentration, dissolved in 0.1 M glycine buffer) was mixed with 50 µL of sample (0.5 mM final concentration, dissolved in DMSO) and 5 µL ONOO^– solution (500 µM final concentration, freshly prepared). After mixing and keeping it at room temperature for 30 min the absorbance was measured at 550 nm using a FluoStar Optima plate reader (software version 2.20R2, BMG Labtech, Ortenberg, Germany).

COX-1 enzyme = target: T2, COX-1 enzyme (Ovis aries, UniProt P05979); assay: COX-1 inhibitor screening kit, fluorometric (BioVision K548-100); format: biochemical; settings: for LLE(COX-1): LLE = pIC50 − logPpredicted; for IC50: mean ± SEM, n = 2
T2 construct: purchased BioVision (via VWR International Kft.) K548-100
T2 sequence (P05979 25-600): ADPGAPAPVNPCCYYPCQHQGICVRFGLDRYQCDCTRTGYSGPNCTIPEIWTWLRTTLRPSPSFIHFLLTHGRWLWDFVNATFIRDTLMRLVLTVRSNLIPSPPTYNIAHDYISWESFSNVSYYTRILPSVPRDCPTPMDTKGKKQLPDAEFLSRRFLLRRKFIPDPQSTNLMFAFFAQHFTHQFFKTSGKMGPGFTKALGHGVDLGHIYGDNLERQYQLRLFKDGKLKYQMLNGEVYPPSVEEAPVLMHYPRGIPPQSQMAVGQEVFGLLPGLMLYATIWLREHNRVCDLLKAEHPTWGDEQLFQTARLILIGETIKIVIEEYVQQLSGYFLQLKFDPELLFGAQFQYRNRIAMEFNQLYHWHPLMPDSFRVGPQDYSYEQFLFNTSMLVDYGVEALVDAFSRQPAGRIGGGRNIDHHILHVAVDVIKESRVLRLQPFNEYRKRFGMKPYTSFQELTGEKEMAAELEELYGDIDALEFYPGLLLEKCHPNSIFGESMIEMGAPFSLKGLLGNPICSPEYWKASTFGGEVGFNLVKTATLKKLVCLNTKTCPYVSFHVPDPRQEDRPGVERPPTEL
Procedure: COX-1 inhibitory activity was tested based on the fluorometric method as described in BioVision’s COX-1 inhibitor screening kit leafkit (K548-100, BioVision, CA, USA). Sample solutions were prepared by dissolving in DMSO and subsequently buffer, to get desired concentrations. In a 96-well white plate (655101, F-bottom, Grenier bio-one, Germany), 80 µL reaction mix (containing 76 µL assay buffer, 1 µL COX Probe, 2 µL COX cofactor, and 1 µL COX-1 enzyme) was added to 10 µL sample solution, DMSO and assay buffer to get test wells assigned for sample screen (S), negative control (N) and blank, respectively. An aliquot of 10 µL of arachidonic/NaOH solution was added to each well using a multi-channel pipette to initiate the reaction at the same time, and the fluorescence of each well was measured kinetically at Ex/Em 550/610 nm, at 25OC for 10 min using a FluoStar Optima plate reader (BMG Labtech, Ortenberg, Germany). The COX inhibitory activity of SC560, a standard inhibitor, was also determined.
The change in fluorescence between two points, T1 and T2 were determined, and relative inhibition was calculated according to the following equation:% Inhibition = (ΔN − ΔS)/ΔN × 100 (1) where N is the absorbance of the negative control, and S is that of the sample.
Dose-effect studies on the compounds were used to determine the concentration that inhibits 50% of the enzyme activity. The sigmoidal dose–response model was obtained by using the software GraphPad Prism 8.0 (La Jolla, CA, USA), and these were used to determine the IC50 values of the compounds.

[4] = DPPH free radical scavenging assay; settings: for IC50: 30 min, room temperature, MeOH, mean ± SEM, n = 2, read-out: DDPH IC50
Procedure: as §1
DPPH (1,10-diphenyl-2-picrylhydrazyl) was purchased from Thermo Fisher Scientific. DPPH free radical scavenging assay was performed with some modifications based on the method by previous study. Briefly, in a 96-well microplate, microdilutions of samples (100 µL, starting from 200 µM in HPLC grade MeOH) were made and 100 µL of DPPH reagent (100 µM in MeOH) was added. After 30 min at room temperature in the dark, the absorbance was measured at 550 nm using a FluoStar Optima plate reader (software version 2.20R2, BMG Labtech Ortenberg, Germany). For the blank control, MeOH was used. The scavenging activity was calculated as Inhibition (%) = (A0 − As)/A0 × 100, and IC50 values were calculated by GraphPad Prism 8.0 (La Jolla, CA, USA).

Structure (SMILES): Oc1ncnc2[nH]ncc12 [allopurinol, reference compound]
inhibition at 100 µM (xanthine oxidase (XO)): 98.8 ± 0.11%

Structure (SMILES): CCCCCC(=O)CC(=O)CCc1ccc(O)c(OC)c1 [Compound 13, 6-gingerdione]
IC50 (washed human platelets): 3.6 ± 0.9 µM
ORAC TE [2]: 2.60 ± 0.06 Trolox equivalents (TE)
ONOO^– Scavenging (%) [3]: <5.0%
XO Inhibition (%) (xanthine oxidase (XO)): <5.0%
LLE(COX-1) (COX-1 enzyme): 1.53
IC50 (COX-1 enzyme): 11.8 ± 5.4 µM
IC50 [4]: 10.9 ± 0.69 µM

Structure (SMILES): CCCCCC(=O)CC(=O)/C=C/c1ccc(O)c(OC)c1 [Compound 11, 6-dehydrogingerdione]
IC50 (washed human platelets): 4.1 ± 1 µM
ORAC TE [2]: 1.98 ± 0.12 Trolox equivalents (TE)
ONOO^– Scavenging (%) [3]: <5.0%
XO Inhibition (%) (xanthine oxidase (XO)): <5.0%
LLE(COX-1) (COX-1 enzyme): 1.14
IC50 (COX-1 enzyme): 23.1 ± 9.3 µM
IC50 [4]: 9.04 ± 0.19 µM

Structure (SMILES): CCCCCC(=O)CC(=O)/C=C/c1ccc(O)cc1 [Compound 12, (E)-1-(4-hydroxyphenyl)dec-1-ene-3,5-dione]
IC50 (washed human platelets; Platelet, 0.05 h): 71.7 ± 28.3 µM
ORAC TE [2]: 2.89 ± 0.49 Trolox equivalents (TE)
ONOO^– Scavenging (%) [3]: <5.0%
inhibition at 100 µM (xanthine oxidase (XO)): < 5%
IC50 (COX-1 enzyme): > 200 µM
DPPH scavenging activity (in words) [4]: inactive
IC50 [4]: > 200 µM

Results, then the compound that gave them:

solubility kinetic at 2 h [1]: 315 ± 23.7 µM
Structure (SMILES): CCCCCC(=O)/C=C(\O)CCc1ccc(O)c(OC)c1 [Compound 13B]

solubility kinetic at 2 h [1]: 15.6 ± 0.1 µM
Structure (SMILES): CCCCCC(=O)CC(=O)/C=C/c1ccc(O)cc1 [Compound 12C]

solubility kinetic at 2 h [1]: 54 ± 1.3 µM
Structure (SMILES): CCCCC/C(O)=C/C(=O)/C=C/c1ccc(O)c(OC)c1 [Compound 11A]

solubility kinetic at 2 h [1]: 15.6 ± 0.1 µM
Structure (SMILES): CCCCC/C(O)=C/C(=O)/C=C/c1ccc(O)cc1 [Compound 12A]

solubility kinetic at 2 h [1]: 15.6 ± 0.1 µM
Structure (SMILES): CCCCCC(=O)/C=C(O)/C=C/c1ccc(O)cc1 [Compound 12B]

solubility kinetic at 2 h [1]: 54 ± 1.3 µM
Structure (SMILES): CCCCCC(=O)/C=C(O)/C=C/c1ccc(O)c(OC)c1 [Compound 11B]

solubility kinetic at 2 h [1]: 315 ± 23.7 µM
Structure (SMILES): CCCCCC(=O)CC(=O)CCc1ccc(O)c(OC)c1 [Compound 13C]

solubility kinetic at 2 h [1]: 315 ± 23.7 µM
Structure (SMILES): CCCCC/C(O)=C/C(=O)CCc1ccc(O)c(OC)c1 [Compound 13A]

solubility kinetic at 2 h [1]: 54 ± 1.3 µM
Structure (SMILES): CCCCCC(=O)CC(=O)/C=C/c1ccc(O)c(OC)c1 [Compound 11C]
